Values of other authors as cited in publication PMC12382614, “(Oxidopyridyl)Porphyrins of Different Lipophilicity: Photophysical Properties, ROS Production and Phototoxicity on Melanoma Cells Under CoCl2-Induced Hypoxia” (Antioxidants, 2025).

How the values were obtained:
[1] = parameters: method as in PMID 3222336; conditions: reference compound; cited from earlier work
[2] = cited from earlier work

## C1=Cc2nc1c(-c1ccccc1)c1nc(c(-c3ccccc3)c3ccc([nH]3)c(-c3ccccc3)c3ccc([nH]3)c2-c2ccccc2)C=C1 [TPP, tetraphenylporphyrin, reference compound]
[1]
  τFL: 10.7 ns
[2]; reference compound (in toluene)
  ΦISC: 0.87
[2]; reference compound
  εT-T: 66 600 M^−1cm^−1
  τT: 90 μs
